Source: ChEMBL document CHEMBL1275511, “Molecular and biochemical characterization of SHV-56, a novel inhibitor-resistant beta-lactamase from Klebsiella pneumoniae” (Antimicrob Agents Chemother, 2008)
In brackets after ≈: the same amount, converted by molar mass.

What was measured:
Escherichia coli [1] = assay: Activity of Escherichia coli Inhibitor-resistant beta-lactamase SHV-56; conditions: JM109
Escherichia coli [2] = assay: Antimicrobial activity against Escherichia coli JM109 by agar dilution method; format: functional
Klebsiella pneumoniae [3] = assay: Antimicrobial activity against Klebsiella pneumoniae Kp2792 expressing beta-lactamase SHV-56 by agar dilution method; format: functional
Escherichia coli [4] = assay: Antimicrobial activity against Escherichia coli JM109 harboring pE1 plasmid expressing beta-lactamase SHV-11 by agar dilution method; format: functional
Escherichia coli [5] = assay: Ratio of Kcat to Km for Escherichia coli Inhibitor-resistant beta-lactamase SHV-56; conditions: JM109
Escherichia coli [6] = assay: Antimicrobial activity against Escherichia coli JM109 harboring pSC1 plasmid expressing beta-lactamase SHV-56 by agar dilution method; format: functional
Escherichia coli [7] = assay: Antimicrobial activity against Escherichia coli JM109 harboring pE1MD plasmid expressing beta-lactamase SHV-56 by agar dilution method; format: functional
Escherichia coli [8] = assay: Antimicrobial activity against Escherichia coli JM109 harboring pE1 plasmid expressing beta-lactamase SHV-11 by agar dilution method in presence of Tazobactam; format: functional
Klebsiella pneumoniae [9] = assay: Antimicrobial activity against Klebsiella pneumoniae Kp2792 expressing beta-lactamase SHV-56 by agar dilution method in presence of Tazobactam; format: functional
Escherichia coli [10] = assay: Antimicrobial activity against Escherichia coli JM109 harboring pSC1 plasmid expressing beta-lactamase SHV-56 by agar dilution method in presence of Tazobactam; format: functional
Escherichia coli [11] = assay: Antimicrobial activity against Escherichia coli JM109 harboring pE1MD plasmid expressing beta-lactamase SHV-56 by agar dilution method in presence of Tazobactam; format: functional
Escherichia coli [12] = assay: Antimicrobial activity against Escherichia coli JM109 by agar dilution method in presence of Tazobactam; format: functional
[13] = Inhibition of Escherichia coli Inhibitor-resistant beta-lactamase SHV-56; set-up: species or system JM109
Escherichia coli [14] = assay: Antimicrobial activity against Escherichia coli JM109 harboring pE1MD plasmid expressing beta-lactamase SHV-56 by agar dilution method in presence of clavulanic acid; format: functional
Escherichia coli [15] = assay: Antimicrobial activity against Escherichia coli JM109 harboring pE1 plasmid expressing beta-lactamase SHV-11 by agar dilution method in presence of clavulanic acid; format: functional
Escherichia coli [16] = assay: Antimicrobial activity against Escherichia coli JM109 by agar dilution method in presence of clavulanic acid; format: functional
Klebsiella pneumoniae [17] = assay: Antimicrobial activity against Klebsiella pneumoniae Kp2792 expressing beta-lactamase SHV-56 by agar dilution method in presence of clavulanic acid; format: functional
Escherichia coli [18] = assay: Antimicrobial activity against Escherichia coli JM109 harboring pSC1 plasmid expressing beta-lactamase SHV-56 by agar dilution method in presence of clavulanic acid; format: functional
Klebsiella pneumoniae [19] = assay: microbe, parasite or virus in culture; conditions: Kp2792
Escherichia coli [20] = assay: Antimicrobial activity against Escherichia coli JM109 harboring pSC1 plasmid expressing beta-lactamase SHV-56 by agar dilution method in presence of Sulbactam; format: functional
Escherichia coli [21] = assay: Antimicrobial activity against Escherichia coli JM109 harboring pE1 plasmid expressing beta-lactamase SHV-11 by agar dilution method in presence of Sulbactam; format: functional
Escherichia coli [22] = assay: Antimicrobial activity against Escherichia coli JM109 harboring pE1MD plasmid expressing beta-lactamase SHV-56 by agar dilution method in presence of Sulbactam; format: functional
[23] = substrate: CO/N=C(\C(=O)N[C@@H]1C(=O)N2C(C(=O)O)=C(CSc3nc(=O)c(O)nn3C)CS[C@H]12)c1csc(N)n1; assay: (§1) Activity of Escherichia coli beta-lactamase SHV-11; conditions: JM109
[24] = substrate: CO/N=C(\C(=O)N[C@@H]1C(=O)N2C(C(=O)O)=C(COC(N)=O)CS[C@H]12)c1ccco1; assay: as §1; conditions: JM109
[25] = substrate: CC(C)(O/N=C(\C(=O)N[C@@H]1C(=O)N2C(C(=O)[O-])=C(C[n+]3ccccc3)CS[C@H]12)c1csc(N)n1)C(=O)O; assay: as §1; conditions: JM109
[26] = substrate: CO/N=C(\C(=O)N[C@@H]1C(=O)N2C(C(=O)O)=C(COC(C)=O)CS[C@H]12)c1csc(N)n1; assay: as §1; conditions: JM109
[27] = substrate: CCN1CCN(C(=O)N[C@@H](C(=O)N[C@@H]2C(=O)N3[C@@H]2SC(C)(C)[C@@H]3C(=O)O)c2ccccc2)C(=O)C1=O; assay: as §1; conditions: JM109
[28] = substrate: CO/N=C(\C(=O)N[C@@H]1C(=O)N2C(C(=O)[O-])=C(C[N+]3(C)CCCC3)CS[C@H]12)c1csc(N)n1; assay: as §1; conditions: JM109
[29] = substrate: CC(=O)OCC1=C(C(=O)O)N2C(=O)[C@@H](NC(=O)Cc3cccs3)[C@H]2SC1; assay: as §1; conditions: JM109
[30] = substrate: CC1(C)S[C@@H]2[C@H](NC(=O)[C@H](C(=O)O)c3ccsc3)C(=O)N2[C@H]1C(=O)O; assay: as §1; conditions: JM109
[31] = substrate: CO[C@@]1(NC(=O)Cc2cccs2)C(=O)N2C(C(=O)O)=C(COC(N)=O)CS[C@@H]21; assay: as §1; conditions: JM109
[32] = substrate: C[C@H]1[C@H](NC(=O)/C(=N\OC(C)(C)C(=O)O)c2csc(N)n2)C(=O)N1S(=O)(=O)O; assay: as §1; conditions: JM109
[33] = substrate: CO/N=C(\C(=O)N[C@@H]1C(=O)N2C(C(=O)O)=C(CSc3nc(=O)c(O)nn3C)CS[C@H]12)c1csc(N)n1; assay: (§2) Ratio of Kcat to Km for Escherichia coli beta-lactamase SHV-11; conditions: JM109
[34] = substrate: CO/N=C(\C(=O)N[C@@H]1C(=O)N2C(C(=O)O)=C(COC(N)=O)CS[C@H]12)c1ccco1; assay: as §2; conditions: JM109
[35] = substrate: CCN1CCN(C(=O)N[C@@H](C(=O)N[C@@H]2C(=O)N3[C@@H]2SC(C)(C)[C@@H]3C(=O)O)c2ccccc2)C(=O)C1=O; assay: as §2; conditions: JM109
[36] = substrate: CC(=O)OCC1=C(C(=O)O)N2C(=O)[C@@H](NC(=O)Cc3cccs3)[C@H]2SC1; assay: as §2; conditions: JM109
[37] = substrate: CC1(C)S[C@@H]2[C@H](NC(=O)[C@H](C(=O)O)c3ccsc3)C(=O)N2[C@H]1C(=O)O; assay: as §2; conditions: JM109

## CO/N=C(\C(=O)N[C@@H]1C(=O)N2C(C(=O)[O-])=C(C[N+]3(C)CCCC3)CS[C@H]12)c1csc(N)n1
Escherichia coli [1]
  kcat: < 0.01 s⁻¹
Escherichia coli [2]
  MIC: ≤ 0.1 µg/mL
Klebsiella pneumoniae [3]
  MIC: ≤ 0.1 µg/mL

## CCN1CCN(C(=O)N[C@@H](C(=O)N[C@@H]2C(=O)N3[C@@H]2SC(C)(C)[C@@H]3C(=O)O)c2ccccc2)C(=O)C1=O [PIPERACILLIN]
Escherichia coli [1]
  Km: 50 µM
  kcat: 50 s⁻¹
Escherichia coli [4]
  MIC: 64 µg/mL (≈ 124 µM)
Escherichia coli [5]
  kcat/Km: 1e+06 M⁻¹ s⁻¹
Escherichia coli [2]
  MIC: 2 µg/mL (≈ 3.86 µM)
Escherichia coli [6]
  MIC: 512 µg/mL (≈ 989 µM)
Escherichia coli [7]
  MIC: 64 µg/mL (≈ 124 µM)
Escherichia coli [8]
  MIC: 2 µg/mL
Klebsiella pneumoniae [9]
  MIC: 4 µg/mL
Escherichia coli [10]
  MIC: 2 µg/mL
Escherichia coli [11]
  MIC: 1 µg/mL
Escherichia coli [12]
  MIC: 1 µg/mL
Klebsiella pneumoniae [3]
  MIC: 512 µg/mL (≈ 989 µM)

## CC(=O)OCC1=C(C(=O)O)N2C(=O)[C@@H](NC(=O)Cc3cccs3)[C@H]2SC1 [CEPHALOTHIN]
Escherichia coli [1]
  Km: 20 µM
  kcat: 0.1 s⁻¹
Escherichia coli [4]
  MIC: 8 µg/mL (≈ 20.2 µM)
Escherichia coli [5]
  kcat/Km: 5000 M⁻¹ s⁻¹
Escherichia coli [2]
  MIC: 4 µg/mL (≈ 10.1 µM)
Escherichia coli [6]
  MIC: 8 µg/mL (≈ 20.2 µM)
Escherichia coli [7]
  MIC: 8 µg/mL (≈ 20.2 µM)
Klebsiella pneumoniae [3]
  MIC: 8 µg/mL (≈ 20.2 µM)

## C[C@H]1[C@H](NC(=O)/C(=N\OC(C)(C)C(=O)O)c2csc(N)n2)C(=O)N1S(=O)(=O)O
Escherichia coli [1]
  kcat: < 0.01 s⁻¹

## CO/N=C(\C(=O)N[C@@H]1C(=O)N2C(C(=O)O)=C(COC(C)=O)CS[C@H]12)c1csc(N)n1 [CEFOTAXIME]
Escherichia coli [1]
  kcat: < 0.01 s⁻¹
Escherichia coli [2]
  MIC: ≤ 0.1 µg/mL
Klebsiella pneumoniae [3]
  MIC: ≤ 0.1 µg/mL

## CC1(C)[C@H](C(=O)O)N2C(=O)C[C@H]2S1(=O)=O [SULBACTAM]
[13]
  IC50: 300 nM

## CO/N=C(\C(=O)N[C@@H]1C(=O)N2C(C(=O)O)=C(COC(N)=O)CS[C@H]12)c1ccco1
Escherichia coli [1]
  kcat: < 0.01 s⁻¹

## CC1(C)S[C@@H]2[C@H](NC(=O)[C@H](N)c3ccc(O)cc3)C(=O)N2[C@H]1C(=O)O [AMOXICILLIN]
Escherichia coli [14]
  MIC: 256 µg/mL
Escherichia coli [4]
  MIC: 2050 µg/mL (≈ 5600 µM)
Escherichia coli [15]
  MIC: 2 µg/mL
Escherichia coli [2]
  MIC: 4 µg/mL (≈ 10.9 µM)
Escherichia coli [6]
  MIC: 4100 µg/mL (≈ 11200 µM)
Escherichia coli [7]
  MIC: 4100 µg/mL (≈ 11200 µM)
Escherichia coli [16]
  MIC: 2 µg/mL
Klebsiella pneumoniae [17]
  MIC: 4100 µg/mL
Escherichia coli [18]
  MIC: 512 µg/mL
Klebsiella pneumoniae [3]
  MIC: > 4100 µg/mL

## CC1(C)S[C@@H]2[C@H](NC(=O)[C@H](C(=O)O)c3ccsc3)C(=O)N2[C@H]1C(=O)O [TICARCILLIN]
Escherichia coli [14]
  MIC: 128 µg/mL
Escherichia coli [1]
  Km: 450 µM
  kcat: 30 s⁻¹
Escherichia coli [4]
  MIC: 2050 µg/mL (≈ 5330 µM)
Escherichia coli [5]
  kcat/Km: 70000 M⁻¹ s⁻¹
Escherichia coli [15]
  MIC: 2 µg/mL
Escherichia coli [2]
  MIC: 4 µg/mL (≈ 10.4 µM)
Escherichia coli [6]
  MIC: > 4100 µg/mL
Escherichia coli [7]
  MIC: 2050 µg/mL (≈ 5330 µM)
Escherichia coli [16]
  MIC: 2 µg/mL
Klebsiella pneumoniae [17]
  MIC: 1020 µg/mL
Escherichia coli [18]
  MIC: 256 µg/mL
Klebsiella pneumoniae [3]
  MIC: > 4100 µg/mL

## CC1(C)S[C@@H]2[C@H](NC(=O)[C@H](N)c3ccccc3)C(=O)N2[C@H]1C(=O)O [AMPICILLIN]
Klebsiella pneumoniae [19]
  MIC: 128 µg/mL (≈ 366 µM)
Escherichia coli [4]
  MIC: 1020 µg/mL (≈ 2930 µM)
Escherichia coli [2]
  MIC: 4 µg/mL (≈ 11.4 µM)
Escherichia coli [20]
  MIC: 128 µg/mL
Escherichia coli [6]
  MIC: 2050 µg/mL (≈ 5860 µM)
Escherichia coli [7]
  MIC: 1020 µg/mL (≈ 2930 µM)
Escherichia coli [21]
  MIC: 128 µg/mL
Escherichia coli [22]
  MIC: 64 µg/mL
Klebsiella pneumoniae [3]
  MIC: > 4100 µg/mL

## CC(C)(O/N=C(\C(=O)N[C@@H]1C(=O)N2C(C(=O)[O-])=C(C[n+]3ccccc3)CS[C@H]12)c1csc(N)n1)C(=O)O
Escherichia coli [1]
  kcat: < 0.01 s⁻¹

## C[C@@H](O)[C@H]1C(=O)N2C(C(=O)O)=C(SCCNC=N)C[C@H]12 [IMIPENEM ANHYDROUS]
Escherichia coli [2]
  MIC: ≤ 0.1 µg/mL
Klebsiella pneumoniae [3]
  MIC: ≤ 0.1 µg/mL

## CO[C@@]1(NC(=O)Cc2cccs2)C(=O)N2C(C(=O)O)=C(COC(N)=O)CS[C@@H]21
Escherichia coli [1]
  kcat: < 0.01 s⁻¹

## CO/N=C(\C(=O)N[C@@H]1C(=O)N2C(C(=O)O)=C(CSc3nc(=O)c(O)nn3C)CS[C@H]12)c1csc(N)n1
Escherichia coli [1]
  kcat: < 0.01 s⁻¹

B1: Beta-lactamase SHV-11 (Escherichia coli), Q7X575 (protein)
chain: MRYIRLCIISLLATLPLAVHASPQPLEQIKQSESQLSGRVGMIEMDLASGRTLTAWRADERFPMMSTFKVVLCGAVLARVDAGDEQLERKIHYRQQDLVDYSPVSEKHLADGMTVGELCAAAITMSDNSAANLLLATVGGPAGLTAFLRQIGDNVTRLDRWETELNEALPGDARDTTTPASMAATLRKLLTSQRLSARSQRQLLQWMVDDRVAGPLIRSVLPAGWFIADKTGAGERGARGIVALLGPNNKAERIVVIYLRDTPASMAERNQQIAGIGAALIEHWQR
[23]
  Km: 300 µM
  kcat: 0.01 s⁻¹
[24]
  Km: 200 µM
  kcat: 0.05 s⁻¹
[25]
  kcat: < 0.01 s⁻¹
[26]
  kcat: < 0.01 s⁻¹
[27]
  Km: 40 µM
  kcat: 30 s⁻¹
[28]
  kcat: < 0.01 s⁻¹
[29]
  Km: 50 µM
  kcat: 0.5 s⁻¹
[30]
  Km: 20 µM
[31]
  kcat: < 0.01 s⁻¹
[32]
  kcat: < 0.01 s⁻¹
[33]
  kcat/Km: 350000 M⁻¹ s⁻¹
[34]
  kcat/Km: 250 M⁻¹ s⁻¹
[35]
  kcat/Km: 750000 M⁻¹ s⁻¹
[36]
  kcat/Km: 10000 M⁻¹ s⁻¹
[37]
  kcat/Km: 100000 M⁻¹ s⁻¹
